Data: ChEMBL document CHEMBL3526112, “Brain uptake of the drug of abuse γ-hydroxybutyric acid in rats” (Drug Metab Dispos, 2012)

Legend:
Plasma [1] = test: Cmax in Sprague-Dawley rat plasma at 400 mg/kg, iv; assay type: ADME, organism-based; parameters: dose 400 mg/kg, route intravenous; settings: in vivo
[2] = Tmax in Sprague-Dawley rat plasma at 400 mg/kg, iv; assay type: ADME, organism-based; parameters: dose 400 mg/kg, route intravenous
[3] = Tmax in Sprague-Dawley rat plasma at 600 mg/kg, iv; assay type: ADME, organism-based; parameters: dose 600 mg/kg, route intravenous
[4] = Tmax in Sprague-Dawley rat plasma at 800 mg/kg, iv; assay type: ADME, organism-based; parameters: dose 800 mg/kg, route intravenous
[5] = Cmax in Sprague-Dawley rat extracellular fluid of brain at 400 mg/kg, iv; assay type: ADME, organism-based; parameters: dose 400 mg/kg, route intravenous; settings: in vivo
[6] = Cmax in Sprague-Dawley rat extracellular fluid of brain at 600 mg/kg, iv; assay type: ADME, organism-based; parameters: dose 600 mg/kg, route intravenous; settings: in vivo
[7] = Cmax in Sprague-Dawley rat extracellular fluid of brain at 800 mg/kg, iv; assay type: ADME, organism-based; parameters: dose 800 mg/kg, route intravenous; settings: in vivo
[8] = Tmax in Sprague-Dawley rat extracellular fluid of brain at 400 mg/kg, iv; assay type: ADME, organism-based; parameters: dose 400 mg/kg, route intravenous
[9] = Tmax in Sprague-Dawley rat extracellular fluid of brain at 600 mg/kg, iv; assay type: ADME, organism-based; parameters: dose 600 mg/kg, route intravenous
[10] = Tmax in Sprague-Dawley rat extracellular fluid of brain at 800 mg/kg, iv; assay type: ADME, organism-based; parameters: dose 800 mg/kg, route intravenous
Plasma [11] = test: AUC in Sprague-Dawley rat plasma at 400 mg/kg, iv; assay type: ADME, organism-based; parameters: dose 400 mg/kg, route intravenous; settings: in vivo
Plasma [12] = test: AUC in Sprague-Dawley rat plasma at 600 mg/kg, iv; assay type: ADME, organism-based; parameters: dose 600 mg/kg, route intravenous; settings: in vivo
Plasma [13] = test: AUC in Sprague-Dawley rat plasma at 800 mg/kg, iv; assay type: ADME, organism-based; parameters: dose 800 mg/kg, route intravenous; settings: in vivo
Brain [14] = test: AUC in Sprague-Dawley rat extracellular fluid of brain at 400 mg/kg, iv; assay type: ADME, organism-based; parameters: dose 400 mg/kg, route intravenous; settings: in vivo
Brain [15] = test: AUC in Sprague-Dawley rat extracellular fluid of brain at 600 mg/kg, iv; assay type: ADME, organism-based; parameters: dose 600 mg/kg, route intravenous; settings: in vivo
Brain [16] = test: AUC in Sprague-Dawley rat extracellular fluid of brain at 800 mg/kg, iv; assay type: ADME, organism-based; parameters: dose 800 mg/kg, route intravenous; settings: in vivo
[17] = Ratio of extracellular fluid of brain AUC to plasma AUC in Sprague-Dawley rat at 400 mg/kg, iv; assay type: ADME, organism-based; parameters: dose 400 mg/kg, route intravenous; settings: read-out: Ratio AUC
[18] = Ratio of extracellular fluid of brain AUC to plasma AUC in Sprague-Dawley rat at 600 mg/kg, iv; assay type: ADME, organism-based; parameters: dose 600 mg/kg, route intravenous; settings: read-out: Ratio AUC
[19] = Ratio of extracellular fluid of brain AUC to plasma AUC in Sprague-Dawley rat at 800 mg/kg, iv; assay type: ADME, organism-based; parameters: dose 800 mg/kg, route intravenous; settings: read-out: Ratio AUC
[20] = Renal clearance in Sprague-Dawley rat at 400 mg/kg, iv; assay type: ADME, organism-based, Kidney; parameters: dose 400 mg/kg, route intravenous; settings: in vivo
[21] = Renal clearance in Sprague-Dawley rat at 600 mg/kg, iv; assay type: ADME, organism-based, Kidney; parameters: dose 600 mg/kg, route intravenous; settings: in vivo
[22] = Renal clearance in Sprague-Dawley rat at 800 mg/kg, iv; assay type: ADME, organism-based, Kidney; parameters: dose 800 mg/kg, route intravenous; settings: in vivo
Rattus norvegicus [23] = test: Increase of sleep time in Sprague-Dawley rat at 400 mg/kg, iv; assay type: functional
Rattus norvegicus [24] = test: Increase of sleep time in Sprague-Dawley rat at 600 mg/kg, iv; assay type: functional
Rattus norvegicus [25] = test: Increase of sleep time in Sprague-Dawley rat at 800 mg/kg, iv; assay type: functional
Rattus norvegicus [26] = test: Increase of sleep time in iv dosed Sprague-Dawley rat; assay type: functional, organism-based
[27] = Drug uptake in rat RBE4 cells at 58 nM at pH 7.4 after 15 to 30 seconds by liquid scintillation counting; assay type: ADME, cell-based; settings: rbe4, pH 7.4, 0.058 µM
[28] = Drug uptake in human hCMEC/D3 cells at 58 nM at pH 7.4 after 15 to 30 seconds by liquid scintillation counting; assay type: ADME, cell-based; settings: hcmec/d3, pH 7.4, 0.058 µM
[29] = Drug uptake in rat RBE4 cells at pH 7.4 up to 10 mins by Michaelis-Menten analysis; assay type: ADME, cell-based
[30] = Drug uptake in human hCMEC/D3 cells at pH 7.4 up to 10 mins by Michaelis-Menten analysis; assay type: ADME, cell-based
[31] = Drug uptake in rat RBE4 cells at 10 mM at pH 6.5 up to 10 mins by Michaelis-Menten analysis relative to at pH 7.4; assay type: ADME, cell-based; settings: rbe4, pH 6.5, 10 min, 10000 µM
[32] = Drug uptake in human hCMEC/D3 cells at 10 mM at pH 6.5 up to 10 mins by Michaelis-Menten analysis relative to at pH 7.4; assay type: ADME, cell-based; settings: hcmec/d3, pH 6.5, 10 min, 10000 µM
Plasma [33] = test: Cmax in Sprague-Dawley rat plasma at 400 mg/kg, iv after 30 to 180 mins; assay type: ADME, organism-based; parameters: dose 400 mg/kg, route intravenous; settings: in vivo
Plasma [34] = test: Cmax in Sprague-Dawley rat plasma at 600 mg/kg, iv after 30 to 180 mins; assay type: ADME, organism-based; parameters: dose 600 mg/kg, route intravenous; settings: in vivo
Plasma [35] = test: Cmax in Sprague-Dawley rat plasma at 800 mg/kg, iv after 30 to 180 mins; assay type: ADME, organism-based; parameters: dose 800 mg/kg, route intravenous; settings: in vivo
[36] = Dissociation constant, pKa of the compound; assay type: physicochemical
[37] = Drug recovery in Sprague-Dawley rat brain frontal cortex at 400 to 800 mg/kg, iv by microdialysis; assay type: ADME, organism-based; parameters: dose 400-800 mg/kg, route intravenous; settings: in vivo

SMILES: O=C([O-])CCCO.[Na+] [SODIUM OXYBATE]
- Cmax (Plasma [1]): 8400 µM
- Tmax [2]: 5 min
- Tmax [3]: 5 min
- Tmax [4]: 5 min
- Cmax [5]: 390 µM
- Cmax [6]: 550 µM
- Cmax [7]: 660 µM
- Tmax [8]: 50 min
- Tmax [9]: 50 min
- Tmax [10]: 50 min
- AUC (Plasma [11]): 66 mg·min/mL
- AUC (Plasma [12]): 124 mg·min/mL
- AUC (Plasma [13]): 145 mg·min/mL
- AUC (Brain [14]): 4.9 mg·min/mL
- AUC (Brain [15]): 8.7 mg·min/mL
- AUC (Brain [16]): 11.2 mg·min/mL
- Kp [17]: 0.079
- Kp [18]: 0.07
- Kp [19]: 0.07
- CL renal [20]: 1.55 mL/min/kg
- CL renal [21]: 1.41 mL/min/kg
- CL renal [22]: 2.18 mL/min/kg
- Time (Rattus norvegicus [23]): 90.4 min
- Time (Rattus norvegicus [24]): 138 min
- Time (Rattus norvegicus [25]): 171 min
- Activity (Rattus norvegicus [26]): Dose-dependent effect
- Drug uptake [27]: Active
- Drug uptake [28]: Active
- Km at 10 min ([29]; RBE4 cells, pH 7.4): 23.3 mM
- Vmax ([29]; rbe4, pH 7.4, 10 min): 258 pmol/mg/min
- Km at 10 min ([30]; hCMEC/D3 cells, pH 7.4): 18.1 mM
- Vmax ([30]; hcmec/d3, pH 7.4, 10 min): 248 pmol/mg/min
- Drug uptake [31]: 126%
- Drug uptake [32]: 126%
- Cmax (Plasma [33]): 600 µM
- Cmax (Plasma [34]): 2400 µM
- Cmax (Plasma [35]): 3400 µM
- pKa [36]: 4.72
- Drug recovery [37]: 32.5%
